We go through nine compounds from article PMC6257776, “Synthesis and Antitumor Activity of Diterpenylhydroquinone Derivatives of Natural Ent-Labdanes” (Molecules, 2010).

Data set [1] has as its system MDA-MB-231 breast carcinoma cells. As to the kind of experiment: SRB cell growth inhibition assay, MDA-MB-231. The following applies: for IC50: Homo sapiens, MDA-MB-231 cells, 72 h exposure, SRB, read-out: Cytotoxicity IC50, MDA-MB-231; for cytotoxic bioactivity against MDA-MB-231 (in words): MDA-MB-231 breast carcinoma. It is filed as cell-based, human. As for the experimental part: (§1) The antitumor cytotoxicity of the compounds was evaluated in vitro against […] different cancer cell lines: PC-3 and DU-145 human prostate cancer, MCF-7 and MDA-MB-231 breast carcinoma and one non-tumoral cell line, dermal human fibroblasts (DHF). A conventional colorimetric assay was set up to estimate the IC50 values, which represent the concentration of a drug that is required for 50% inhibition in vitro after 72 h of continuous exposure to the test compounds. Four serial dilutions (from 12.5 to 100 µM) for each sample were evaluated in triplicate. The results obtained from these assays are shown in Table 1 and the following general observations can be made as a result: the natural ent-labdanes derivatives 3-5 (IC50 > 100) were the least cytotoxic of the series.
(§2) The colorimetric assay using sulforhodamine B (SRB) was realized following an adaptation of the described method by Skehan et al.. Cells were seeded in 96-well microtiter plates, at5 × 10^3 cells per well in aliquots of 100 µL of DMEM/F-12 medium, and they were allowed to attach to the plate surface by growing in drug-free medium for 18 h. Afterward, compounds samples were added in aliquots (dissolved in EtOH/H2O) to achieve a final concentration of 100, 50, 25 12.5 µM. After 72 h exposure, the in vitro cytotoxicity was measured by the SRB dye assay. Cells were fixed by adding cold 50% (wt/vol) trichloroacetic acid (TCA, 25 µL) and incubating for 60 min at 4 °C. Plates were washed with deionized water and dried; SRB solution (0.1% wt/vol in 1% acetic acid, 50 µL) was added to each microtiter well and incubated for 30 min at room temperature. Unbound SRB is removed by washing with 1% acetic acid. Plates were air-dried and bound stain was solubilized with Tris base (100 µL, 10 mM). Optical densities were read on an automated spectrophotometer plate reader at a single wavelength of 540 nm. Values shown are the % viability vs. ctrl + SD, n = four independent experiments in triplicate.

In data set [2] the test system is MCF-7 breast carcinoma cells. The experiment in a line: SRB cell growth inhibition assay, MCF-7. Format: cell-based, human. The following applies: for IC50: Homo sapiens, MCF7, MCF-7 cells, 72 h exposure, SRB, read-out: Cytotoxicity IC50, MCF-7; for cytotoxic bioactivity against MCF-7 (in words): MCF-7 breast carcinoma. As for the experimental part: as §1, §2
Data set [3] relates to PC-3 human prostate cancer cells. The experiment in a line: SRB cell growth inhibition assay, PC-3. Format: cell-based. Conditions: PC-3 cells, 72 h exposure, read-out: Cytotoxicity IC50, PC-3. Here is the method:
as §1, §2

Data set [4] relates to DU-145 human prostate cancer cells. As to the kind of experiment: SRB cell growth inhibition assay, DU-145. It is filed as cell-based. The following applies: DU-145 cells, 72 h exposure, read-out: Cytotoxicity IC50, DU-145. As for the experimental part:
as §1, §2

A short description of data set [5]: SRB cell growth inhibition assay, DHF (non-tumoral). The following applies: dermal human fibroblasts (DHF), non-tumoral cells, 72 h exposure, read-out: Cytotoxicity IC50, DHF. Format: cell-based. As for the experimental part:
as §1, §2

With `C=C1CC[C@@H]2C(C)(C)C[C@@H](OC(C)=O)C[C@@]2(C)[C@@H]1CC/C(C)=C/Cc1cc(O)ccc1O` [Compound 7], the IC50 (usually the concentration that gives 50% inhibition) worked out at 75.9 µM in data set [1], 23.9 µM in data set [2], 21.4 µM in data set [3] and 44.6 µM in data set [4]. Moreover, the IC50 at 72 h in data set [5] was above 100 µM.
For `C=C1CC[C@@H]2C(C)(C)C[C@@H](O)C[C@@]2(C)[C@@H]1CC/C(C)=C/Cc1cc(O)ccc1O` [Compound 8] the same measures were 61.8 µM, 34 µM, 28.2 µM, 37.6 µM and above 100 µM.
As for `C=C1CC[C@@H]2C(C)(C)C[C@@H](OC(C)=O)C[C@@]2(C)[C@@H]1CC/C(C)=C/Cc1cc(OC(C)=O)ccc1OC(C)=O` [Compound 9, 2β-Acetoxy-15-phenyl-(22,25-acetoxy)-ent-labda-8(17),13(E)-diene], the half-maximal inhibitory concentration (IC50) in data set [1] was found to be 33.8 µM; in data set [2], 41.1 µM; in data set [3], 64.3 µM; in data set [4], 62.9 µM. Further, the “cytotoxic bioactivity against MDA-MB-231 (in words)” value in data set [1] was “showed cytotoxic bioactivity”. Moreover, the “cytotoxic bioactivity against MCF-7 (in words)” value in data set [2] was “showed cytotoxic bioactivity”. Besides, the IC50 at 72 h in data set [5] turned out to be 72.3 µM.
With `C=C1CC[C@@H]2C(C)(C)C[C@@H](O)C[C@@]2(C)[C@@H]1CC/C(C)=C/COC(C)=O` [Compound 11, 2β-Hydroxy-15-acetoxy-ent-labda-8(17),13(E)-diene], the IC50 was above 100 µM in data set [1], 86.9 µM in data set [2], 35.6 µM in data set [3] and above 100 µM in data set [4]. Moreover, the IC50 at 72 h in data set [5] was above 100 µM.
As for `C=C1CC[C@@H]2C(C)(C)C[C@@H](O)C[C@@]2(C)[C@@H]1CC/C(C)=C\CO` [Compound 6], the IC50 is 96 µM in data set [1], 74.9 µM in data set [2], above 100 µM in data set [3] and 96.2 µM in data set [4]. Also, the IC50 at 72 h in data set [5] was above 100 µM.
With `C=C1CC[C@@H]2C(C)(C)C[C@@H](OC(C)=O)C[C@@]2(C)[C@@H]1CC/C(C)=C\CO` [Compound 5], the IC50 in data set [1], in data set [2], in data set [3] and in data set [4] was above 100 µM throughout. Moreover, the concentration for half-maximal inhibition (IC50) at 72 h in data set [5] is above 100 µM.
In the case of `C=C1CC[C@@H]2C(C)(C)C[C@@H](O)C[C@@]2(C)[C@@H]1CC/C(C)=C/CO` [Compound 4], the IC50 was above 100 µM in data set [1], 90.6 µM in data set [2], above 100 µM in data set [3] and above 100 µM in data set [4]. Also, the IC50 at 72 h in data set [5] was above 100 µM.
For `C=C1CCC2C(C)(C)CC(O)CC2(C)C1CCC(C)=CCc1c(OC)cc(OC)cc1OC` (stereo not drawn) [Compound 10, 2β-Hydroxy-15-phenyl-(22,24,26-trimethoxy)-ent-labda-8(17),13(E)-diene], the IC50 in data set [1] is 85.9 µM; in data set [2] it was 45.6 µM; in data set [3] it was 91.2 µM; in data set [4] it was above 100 µM. In addition, the “cytotoxic bioactivity against MDA-MB-231 (in words)” value in data set [1] is on record as “showed cytotoxic bioactivity”. Further, the “cytotoxic bioactivity against MCF-7 (in words)” value in data set [2] is listed as “showed cytotoxic bioactivity”. Also, in data set [5], the 50% inhibitory concentration (IC50) at 72 h was above 100 µM.
On to `C=C1CC[C@@H]2C(C)(C)C[C@@H](OC(C)=O)C[C@@]2(C)[C@@H]1CC/C(C)=C/CO` [Compound 3], for which the half-maximal inhibitory concentration (IC50) in data set [1], in data set [2], in data set [3] and in data set [4] was above 100 µM each time. The IC50 at 72 h in data set [5] was above 100 µM.
